# Laboratory results taken from ChEMBL document CHEMBL2086254, “Synthesis and identification of novel indolo[2,3-a]pyrimido[5,4-c]carbazoles as a new class of anti-cancer agents” (Eur J Med Chem, 2012).
# Key:
# Format in all cases: functional
# HOP-92 = assay: Cytotoxicity against human HOP92 cells assessed as cell growth at 10 uM after 48 hrs by SRB assay relative to control; settings: HOP-92, 48 h, read-out: Activity
# IGROV-1 = assay: Cytotoxicity against human IGROV1 cells after 48 hrs by SRB assay; settings: IGROV-1, 48 h
# 786-0 = assay: Cytotoxicity against human 786-0 cells after 48 hrs by SRB assay; settings: 786-0, 48 h
# NCI-H522 = assay: Cytotoxicity against human NCI-H522 cells after 48 hrs by SRB assay; settings: NCI-H522, 48 h
# Malme-3M = assay: Cytotoxicity against human MALME-3M cells after 48 hrs by SRB assay
# UACC-62 = assay: Cytotoxicity against human UACC62 cells after 48 hrs by SRB assay; settings: UACC-62, 48 h
# PC-3 = assay: Cytotoxicity against human PC3 cells after 48 hrs by SRB assay; settings: PC-3, 48 h
# K562 = assay: Cytotoxicity against human K562 cells after 48 hrs by SRB assay; settings: K562, 48 h
# SF-295 = assay: Cytotoxicity against human SF295 cells after 48 hrs by SRB assay; settings: SF-295, 48 h
# SF-268 = assay: Cytotoxicity against human SF268 cells after 48 hrs by SRB assay; settings: SF-268, 48 h
# LOX IMVI = assay: Cytotoxicity in human LOXIMVI cells after 48 hrs by SRB assay
# RPMI-8226 = assay: Cytotoxicity against human RPMI8226 cells after 48 hrs by SRB assay; settings: RPMI-8226, 48 h
# NCI-H23 = assay: Cytotoxicity against human NCI-H23 cells after 48 hrs by SRB assay; settings: NCI-H23, 48 h
# HOP-62 = assay: Cytotoxicity against human HOP62 cells after 48 hrs by SRB assay; settings: HOP-62, 48 h
# ACHN = assay: Cytotoxicity against human ACHN cells after 48 hrs by SRB assay
# MDA-MB-231 = assay: Cytotoxicity against human MDA-MB-231 cells after 48 hrs by SRB assay; settings: MDA-MB-231, 48 h
# SN12C = assay: Cytotoxicity against human SN12C cells after 48 hrs by SRB assay
# TK-10 = assay: Cytotoxicity against human TK10 cells after 48 hrs by SRB assay; settings: TK-10, 48 h
# SK-OV-3 = assay: Cytotoxicity against human SKOV3 cells after 48 hrs by SRB assay; settings: SK-OV-3, 48 h
# HT-29 = assay: Cytotoxicity against human HT-29 cells after 48 hrs by SRB assay; settings: HT-29, 48 h
# DU-145 = assay: Cytotoxicity against human DU145 cells after 48 hrs by SRB assay; settings: DU-145, 48 h
# [1] = Cytotoxicity against human Hs 578T cells after 48 hrs by SRB assay
# MCF7 = assay: Cytotoxicity against human MCF7 cells after 48 hrs by SRB assay; settings: MCF7, 48 h
# COLO 205 = assay: Cytotoxicity against human COLO205 cells after 48 hrs by SRB assay; settings: COLO 205, 48 h
# RXF 393 = assay: Cytotoxicity against human RXF393 cells after 48 hrs by SRB assay; settings: RXF 393, 48 h
# HCT-116 = assay: Cytotoxicity against human HCT116 cells after 48 hrs by SRB assay; settings: HCT-116, 48 h
# A549 = assay: Cytotoxicity against human A549 cells after 48 hrs by SRB assay; settings: A549, 48 h
# OVCAR-4 = assay: Cytotoxicity against human OVCAR4 cells after 48 hrs by SRB assay; settings: OVCAR-4, 48 h
# UO-31 = assay: Cytotoxicity against human UO31 cells after 48 hrs by SRB assay; settings: UO-31, 48 h
# SR = assay: Cytotoxicity against human SR cells after 48 hrs by SRB assay
# NCI-H226 = assay: Cytotoxicity against human NCI-H226 cells after 48 hrs by SRB assay; settings: NCI-H226, 48 h
# U-251 = assay: Cytotoxicity in human U251 cells after 48 hrs by SRB assay; settings: U-251, 48 h
# BT-549 = assay: Cytotoxicity against human BT549 cells after 48 hrs by SRB assay; settings: BT-549, 48 h
# NCI-H460 = assay: Cytotoxicity against human NCI-H460 cells after 48 hrs by SRB assay; settings: NCI-H460, 48 h
# [2] = read-out: LC50 (the source's name)
smiles,measurement,setting,value
Cn1cc(-c2[nH]c(=S)[nH]c(=O)c2-c2cn(C)c3ccccc23)c2ccccc21,growth at 10 µM,HOP-92,69.8%
Cn1c2ccccc2c2c3nc(N)[nH]c(=O)c3c3c4ccccc4n(C)c3c21,GI50,IGROV-1,31.3 µM
same,TGI,IGROV-1,> 100 µM
same,CC50,IGROV-1; [2],> 100 µM
same,GI50,786-0,7.7 µM
same,TGI,786-0,54.4 µM
same,CC50,786-0; [2],> 100 µM
same,GI50,NCI-H522,14.5 µM
same,TGI,NCI-H522,> 100 µM
same,CC50,NCI-H522; [2],> 100 µM
same,GI50,Malme-3M,14.5 µM
same,TGI,Malme-3M,74.8 µM
same,CC50,Malme-3M; [2],> 100 µM
same,GI50,UACC-62,16.1 µM
same,TGI,UACC-62,> 100 µM
same,CC50,UACC-62; [2],> 100 µM
same,GI50,PC-3,5.54 µM
same,TGI,PC-3,> 100 µM
same,CC50,PC-3; [2],> 100 µM
same,GI50,K562,3.93 µM
same,TGI,K562,40.3 µM
same,CC50,K562; [2],> 100 µM
same,GI50,SF-295,3.68 µM
same,TGI,SF-295,12.9 µM
same,CC50,SF-295; [2],76.7 µM
same,GI50,SF-268,15.8 µM
same,TGI,SF-268,> 100 µM
same,CC50,SF-268; [2],> 100 µM
same,GI50,LOX IMVI,4.7 µM
same,TGI,LOX IMVI,31.1 µM
same,CC50,LOX IMVI; [2],> 100 µM
same,GI50,RPMI-8226,11.1 µM
same,TGI,RPMI-8226,65.6 µM
same,CC50,RPMI-8226; [2],> 100 µM
same,GI50,NCI-H23,3.51 µM
same,TGI,NCI-H23,> 100 µM
same,CC50,NCI-H23; [2],> 100 µM
same,GI50,HOP-62,41 µM
same,TGI,HOP-62,> 100 µM
same,CC50,HOP-62; [2],> 100 µM
same,GI50,ACHN,1.11 µM
same,TGI,ACHN,> 100 µM
same,CC50,ACHN; [2],> 100 µM
same,GI50,MDA-MB-231,93 µM
same,TGI,MDA-MB-231,> 100 µM
same,CC50,MDA-MB-231; [2],> 100 µM
same,GI50,SN12C,6.49 µM
same,TGI,SN12C,> 100 µM
same,CC50,SN12C; [2],> 100 µM
same,GI50,TK-10,7.14 µM
same,TGI,TK-10,> 100 µM
same,CC50,TK-10; [2],> 100 µM
same,GI50,SK-OV-3,3.56 µM
same,TGI,SK-OV-3,> 100 µM
same,CC50,SK-OV-3; [2],> 100 µM
same,GI50,HT-29,3.98 µM
same,TGI,HT-29,66.1 µM
same,CC50,HT-29; [2],> 100 µM
same,GI50,DU-145,8.2 µM
same,TGI,DU-145,> 100 µM
same,CC50,DU-145; [2],> 100 µM
same,GI50,[1],10.2 µM
same,TGI,[1],> 100 µM
same,CC50,[1]; [2],> 100 µM
same,GI50,MCF7,2.13 µM
same,TGI,MCF7,44.1 µM
same,CC50,MCF7; [2],> 100 µM
same,GI50,COLO 205,7.99 µM
same,TGI,COLO 205,39.4 µM
same,CC50,COLO 205; [2],> 100 µM
same,GI50,RXF 393,7.47 µM
same,TGI,RXF 393,37.6 µM
same,CC50,RXF 393; [2],> 100 µM
same,GI50,HCT-116,3.2 µM
same,TGI,HCT-116,35.3 µM
same,CC50,HCT-116; [2],> 100 µM
same,GI50,A549,5.8 µM
same,TGI,A549,> 100 µM
same,CC50,A549; [2],> 100 µM
same,GI50,OVCAR-4,16.8 µM
same,TGI,OVCAR-4,> 100 µM
same,CC50,OVCAR-4; [2],> 100 µM
same,GI50,UO-31,1.37 µM
same,TGI,UO-31,> 100 µM
same,CC50,UO-31; [2],> 100 µM
same,GI50,SR,4.61 µM
same,TGI,SR,41.8 µM
same,CC50,SR; [2],> 100 µM
same,GI50,NCI-H226,30.6 µM
same,TGI,NCI-H226,> 100 µM
same,CC50,NCI-H226; [2],> 100 µM
same,GI50,U-251,6.38 µM
same,TGI,U-251,> 100 µM
same,CC50,U-251; [2],> 100 µM
same,GI50,BT-549,16.3 µM
same,TGI,BT-549,> 100 µM
same,CC50,BT-549; [2],> 100 µM
same,GI50,NCI-H460,3.06 µM
same,TGI,NCI-H460,> 100 µM
same,CC50,NCI-H460; [2],> 100 µM
